# Laboratory results taken from patent publication US20240285670A1, “THERAPEUTIC TREATMENT OF TUMORS BY BLOCKING THE HEME SYNTHESIS-EXPORT AXIS” (Università degli Studi di Torino, priority 2021, published 2024).
# Tests used:
# ALAS1 = assay: qRT-PCR analysis of ALAS1 expression in SHSY5Y cells; format: cell-based, human; details: 5 mM ALA for 15 hours vs non-treated
# Protocol: (§1) (A) Heme content in SHSY5Y cells non-treated (NT) or treated with 5 mM ALA for 15 hours. Values are expressed as pmol heme/mg protein. Data represent mean±SEM, n=3; *=P<0.05. (B, C) qRT-PCR analysis of the expression of ALAS1 (B) and FLVCR1a (C) in SHSY5Y cells non-treated (NT) or treated with 5 mM ALA for 15 hours. Transcript abundance, normalized to beta-actin mRNA expression, is expressed as a fold increase over a calibrator sample. Data represent mean±SEM, n=4. For statistical analyses, an unpaired Student's t-test was used; *p<0.05. (D) qRT-PCR analysis of the expression of ALAS1 in SKCO1 cells untreated (NT) or treated with 5 mM ALA for 24 hours. Transcript abundance, normalized to beta-actin mRNA expression, is expressed as a fold increase over a calibrator sample. Data represent mean±SEM, n=5. […] Band intensities were measured by densitometry and normalized to beta-actin expression. […] (F) Proliferation of SHSY5Y cells assessed by crystal violet staining at different time points (starting from the day after plating, named “day 0”). Treatment with 5 mM ALA occurred at “day 0” and cells were monitored until the end of the experiment without medium refresh. […] (G) SKCO1 cells viability measured by the CellTiter-Fluor Cell Viability Assay (Promega, Madison, WI USA, catalog n°G6080) at different time points, starting from the day after plating (named “day 0”), as a readout of cell proliferation. […]
# FLVCR1a = assay: qRT-PCR analysis of FLVCR1a expression in SHSY5Y cells; format: cell-based, human; details: 5 mM ALA for 15 hours vs non-treated
# Protocol: as §1
# lung tumor LLC cells = assay: LLC cell viability (CellTiter-Fluor) as readout of proliferation; format: cell-based, murine; details: 5 mM ALA at day 0, no medium refresh
# BTECs = assay: Wound healing assay (BTECs migration); format: cell-based, human; details: FLVCR1a-silenced vs scramble shRNA BTECs
# Description: (A) BTECs counting, as a readout of cell proliferation, at the indicated time points. […] Data represent mean±SEM, n=4. For statistical analyses, a two-way analysis of variance was used, followed by the Bonferroni correction for multiple group comparisons; ***p<0.001. (B) Quantification of BTECs migration rate in wound-healing assay. […] Data represent mean±SEM, n=32. For statistical analyses, a nonparametric unpaired Mann-Whitney test was used; ***p<0.001. (C) In vitro tubulogenesis assay on matrigel. […] The number of nodes counted within the neo-formed vascular networks is shown. Data represent mean±SEM; n=10. For statistical analyses, a nonparametric unpaired Mann-Whitney test was used; **p<0.01.
# To evaluate cell motility, BTECs were grown to confluence in 24-well plates coated with 1% Gelatin from bovine skin (Sigma-Aldrich, St. Louis, MO USA, catalog n° G9391). […] Cell migration into the wound was monitored using a Nikon Eclipse T-E microscope with a 4× objective. […] Three separate wells were used for each condition and, in each well, at least six fields were analysed for each condition. Cell migration into the wound was assessed using Fiji open source software (Schindelin et al., 2012) (http://fiji.sc/ RRID:SCR_002285), by measuring the distance between the two sides of the wound at each time point. Data were expressed as percentage of cell migration. […]
Molecule,ALAS1 transcript levels (ALAS1),FLVCR1a transcript levels (FLVCR1a),cell proliferation (cell viability) (lung tumor LLC cells),migratory rate (BTECs)
"Cl.NCC(=O)CCC(=O)O [5-ALA, 5-Aminolevulinic acid hydrochloride]",reduced,reduced,significantly reduced,
"FLVCR1a shRNA: shRNA specifically down-regulating FLVCR1a without targeting FLVCR1b; pLKO.1 lentiviral clone TRCN0000059599, antisense SEQ ID No.: 2 (antisense TTGCTAATGATGCTGTACTGG; sense CCAGTACAGCATCATTAGCAA)",,,,reduction of the migratory rate
